In brackets after ≈: the same amount, converted by molar mass.
Key:
Assay type in all cases: physicochemical
[1] = Solubility measurement in various solvents at 23 ± 1° C. (Procedure 1)
Protocol: (§1) The solubility of the Compound 1 Form I was measured according to Procedure 1 for solubility in 23±1° C. (Table 13) and Procedure 2 for 50±1° C.

[2] = Solubility measurement in various solvents at 50 ± 1° C. (Procedure 2)
Protocol: as §1

[3] = Competitive slurry experiments (stability relationship of Compound 1 forms); conditions: in acetone/water (2:1) and acetone/water (1:1), 23-25° C.
Protocol: To evaluate the transformation of Compound 1 solid forms, competitive slurry experiments in production crystallization solvents at 23-25° C. were performed with a mixture of […] polymorphs (Form I through Form XI) according to the procedures in Table 25 (acetone/water 2:1) and Table 26 (acetone/water 1:1).

C=CC(=O)NCc1cc2c(cn1)CN(c1c(F)c(OC)cc(OC)c1F)C(=O)C21CC1 [Form III]
solubility ([1]; 1,4-dioxane, 23 °C, organic solvent or mixture, thermodynamic from solid, 1,4-Dioxane, read-out: Solubility at 23 ± 1° C.): 3020 µg/mL (≈ 7.03 mM)
solubility ([2]; 1,4-dioxane, 50 °C, organic solvent or mixture, thermodynamic from solid, 1,4-Dioxane, read-out: Solubility at 50 ± 1° C.): 37800 µg/mL (≈ 88 mM)

C=CC(=O)NCc1cc2c(cn1)CN(c1c(F)c(OC)cc(OC)c1F)C(=O)C21CC1 [Form II]
solubility ([1]; Chloroform, 23 °C, organic solvent or mixture, thermodynamic from solid, Chloroform, read-out: Solubility at 23 ± 1° C.): 26700 µg/mL (≈ 62.1 mM)
solubility ([2]; Chloroform, 50 °C, organic solvent or mixture, thermodynamic from solid, Chloroform, read-out: Solubility at 50 ± 1° C.): > 50000 µg/mL

C=CC(=O)NCc1cc2c(cn1)CN(c1c(F)c(OC)cc(OC)c1F)C(=O)C21CC1 [Form IV]
solubility ([1]; toluene, 23 °C, organic solvent or mixture, thermodynamic from solid, Toluene, read-out: Solubility at 23 ± 1° C.): 150 µg/mL (≈ 0.349 mM)
solubility ([2]; toluene, 50 °C, organic solvent or mixture, thermodynamic from solid, Toluene, read-out: Solubility at 50 ± 1° C.): 170 µg/mL (≈ 0.396 mM)

C=CC(=O)NCc1cc2c(cn1)CN(c1c(F)c(OC)cc(OC)c1F)C(=O)C21CC1 [Compound 1 Form I, N-((2′-(2,6-difluoro-3,5-dimethoxyphenyl)-3′-oxo-2′,3′-dihydro-1′H-spiro[cyclopropane-1,4′-[2,7]naphthyridine]-6′-yl)methyl)acrylamide]
solubility ([1]; 1-Propanol, 23 °C, organic solvent or mixture, thermodynamic from solid, 1-Propanol, read-out: Solubility at 23 ± 1° C.): 1720 µg/mL (≈ 4.01 mM)
solubility ([1]; 2-methoxyethanol, 23 °C, organic solvent or mixture, thermodynamic from solid, 2-Methoxyethanol, read-out: Solubility at 23 ± 1° C.): 20200 µg/mL (≈ 47 mM)
solubility ([1]; Acetone/water (1:1), 23 °C, aqueous with cosolvent or surfactant or cyclodextrin, thermodynamic from solid, Acetone/water (1:1), read-out: Solubility at 23 ± 1° C.): 3970 µg/mL (≈ 9.24 mM)
solubility ([1]; Acetone/water (1:2), 23 °C, aqueous with cosolvent or surfactant or cyclodextrin, thermodynamic from solid, Acetone/water (1:2), read-out: Solubility at 23 ± 1° C.): 860 µg/mL (≈ 2 mM)
solubility ([1]; Acetone/water (1:4), 23 °C, aqueous with cosolvent or surfactant or cyclodextrin, thermodynamic from solid, Acetone/water (1:4), read-out: Solubility at 23 ± 1° C.): 170 µg/mL (≈ 0.396 mM)
solubility ([1]; Acetone/water (2:1), 23 °C, aqueous with cosolvent or surfactant or cyclodextrin, thermodynamic from solid, Acetone/water (2:1), read-out: Solubility at 23 ± 1° C.): 12500 µg/mL (≈ 29 mM)
solubility ([1]; Acetone/water (4:1), 23 °C, aqueous with cosolvent or surfactant or cyclodextrin, thermodynamic from solid, Acetone/water (4:1), read-out: Solubility at 23 ± 1° C.): 19400 µg/mL (≈ 45.2 mM)
solubility ([1]; DCM/MeOH (1:1), 23 °C, organic solvent or mixture, thermodynamic from solid, DCM/MeOH (1:1), read-out: Solubility at 23 ± 1° C.): > 50000 µg/mL
solubility ([1]; DMF, 23 °C, organic solvent or mixture, thermodynamic from solid, DMF, read-out: Solubility at 23 ± 1° C.): > 50000 µg/mL
solubility ([1]; DMSO, 23 °C, organic solvent or mixture, thermodynamic from solid, DMSO, read-out: Solubility at 23 ± 1° C.): > 50000 µg/mL
solubility ([1]; DMSO, DMF, DCM/MeOH (1:1), THF/water (4:1), 23 °C, organic solvent or mixture, thermodynamic from solid, at 23° C. in DMSO, DMF, DCM/MeOH (1:1), and THF/water (4:1), read-out: Solubility (completely soluble)): > 50000 µg/mL
solubility ([1]; Dichloromethane, 23 °C, organic solvent or mixture, thermodynamic from solid, Dichloromethane, read-out: Solubility at 23 ± 1° C.): 12400 µg/mL (≈ 29 mM)
solubility ([1]; EtOAc, 23 °C, organic solvent or mixture, thermodynamic from solid, EtOAc, read-out: Solubility at 23 ± 1° C.): 890 µg/mL (≈ 2.07 mM)
solubility ([1]; EtOH, 23 °C, organic solvent or mixture, thermodynamic from solid, EtOH, read-out: Solubility at 23 ± 1° C.): 2010 µg/mL (≈ 4.68 mM)
solubility ([1]; IPA, 23 °C, organic solvent or mixture, thermodynamic from solid, IPA, read-out: Solubility at 23 ± 1° C.): 900 µg/mL (≈ 2.1 mM)
solubility ([1]; IPAc, 23 °C, organic solvent or mixture, thermodynamic from solid, IPAc, read-out: Solubility at 23 ± 1° C.): 440 µg/mL (≈ 1.02 mM)
solubility ([1]; MEK, 23 °C, organic solvent or mixture, thermodynamic from solid, MEK, read-out: Solubility at 23 ± 1° C.): 3580 µg/mL (≈ 8.34 mM)
solubility ([1]; MIBK, 23 °C, organic solvent or mixture, thermodynamic from solid, MIBK, read-out: Solubility at 23 ± 1° C.): 910 µg/mL (≈ 2.12 mM)
solubility ([1]; MeCN, 23 °C, organic solvent or mixture, thermodynamic from solid, MeCN, read-out: Solubility at 23 ± 1° C.): 4590 µg/mL (≈ 10.7 mM)
solubility ([1]; THF, 23 °C, organic solvent or mixture, thermodynamic from solid, THF, read-out: Solubility at 23 ± 1° C.): 3770 µg/mL (≈ 8.78 mM)
solubility ([1]; THF/water (4:1), 23 °C, organic solvent or mixture, thermodynamic from solid, THF/water (4:1), read-out: Solubility at 23 ± 1° C.): > 50000 µg/mL
solubility ([1]; acetone, 23 °C, organic solvent or mixture, thermodynamic from solid, Acetone, read-out: Solubility at 23 ± 1° C.): 5100 µg/mL (≈ 11.9 mM)
Solubility (slightly soluble) ([1]; at 23° C. in MeCN, 1,4-dioxane, MeOH, 2-methoxyethanol, THF, acetone, n-BuOH, EtOH, ethyl formate, 1-propanol, MEK, acetone water (2:1), acetone water (1:1), chloroform and dichloromethane): 1000 to 50000 µg/mL
solubility ([1]; ethyl formate, 23 °C, organic solvent or mixture, thermodynamic from solid, Ethyl formate, read-out: Solubility at 23 ± 1° C.): 2200 µg/mL (≈ 5.12 mM)
solubility ([1]; isobutyl acetate, 23 °C, organic solvent or mixture, thermodynamic from solid, Isobutyl acetate, read-out: Solubility at 23 ± 1° C.): 280 µg/mL (≈ 0.652 mM)
solubility ([1]; methanol, 23 °C, organic solvent or mixture, thermodynamic from solid, Methanol, read-out: Solubility at 23 ± 1° C.): 5350 µg/mL (≈ 12.5 mM)
solubility ([1]; n-BuOH, 23 °C, organic solvent or mixture, thermodynamic from solid, n-BuOH, read-out: Solubility at 23 ± 1° C.): 1180 µg/mL (≈ 2.75 mM)
solubility ([1]; organic solvent or mixture, thermodynamic from solid, at 23° C. in heptane, hexane, toluene, MTBE, isobutyl acetate, IPAc, water, acetone water (1:4), MIBK, EtOAc, IPA, and acetone water (1:2), read-out: Solubility (insoluble)): < 1000 µg/mL
solubility ([1]; water, 23 °C, water, thermodynamic from solid, Water, read-out: Solubility at 23 ± 1° C.): 10 µg/mL (≈ 0.0233 mM)
solubility ([2]; 1-Propanol, 50 °C, organic solvent or mixture, thermodynamic from solid, 1-Propanol, read-out: Solubility at 50 ± 1° C.): 2890 µg/mL (≈ 6.73 mM)
solubility ([2]; 2-methoxyethanol, 50 °C, organic solvent or mixture, thermodynamic from solid, 2-Methoxyethanol, read-out: Solubility at 50 ± 1° C.): 36600 µg/mL (≈ 85.3 mM)
solubility ([2]; 50 °C, organic solvent or mixture, thermodynamic from solid, at 50° C. in DMSO, DMF, DCM/MeOH (1:1), THF/water (4:1), acetone/water (4:1) and chloroform, read-out: Solubility (completely soluble)): > 50000 µg/mL
solubility ([2]; 50 °C, organic solvent or mixture, thermodynamic from solid, at 50° C. in heptane, hexane, toluene, MTBE, isobutyl acetate, IPAc, water, and acetone water (1:4), read-out: Solubility (insoluble)): < 1000 µg/mL
solubility ([2]; Acetone/water (1:1), 50 °C, aqueous with cosolvent or surfactant or cyclodextrin, thermodynamic from solid, Acetone/water (1:1), read-out: Solubility at 50 ± 1° C.): 12600 µg/mL (≈ 29.4 mM)
solubility ([2]; Acetone/water (1:2), 50 °C, aqueous with cosolvent or surfactant or cyclodextrin, thermodynamic from solid, Acetone/water (1:2), read-out: Solubility at 50 ± 1° C.): 3530 µg/mL (≈ 8.22 mM)
solubility ([2]; Acetone/water (1:4), 50 °C, aqueous with cosolvent or surfactant or cyclodextrin, thermodynamic from solid, Acetone/water (1:4), read-out: Solubility at 50 ± 1° C.): 570 µg/mL (≈ 1.33 mM)
solubility ([2]; Acetone/water (2:1), 50 °C, aqueous with cosolvent or surfactant or cyclodextrin, thermodynamic from solid, Acetone/water (2:1), read-out: Solubility at 50 ± 1° C.): 47000 µg/mL (≈ 109 mM)
solubility ([2]; Acetone/water (4:1), 50 °C, aqueous with cosolvent or surfactant or cyclodextrin, thermodynamic from solid, Acetone/water (4:1), read-out: Solubility at 50 ± 1° C.): > 50000 µg/mL
solubility ([2]; DCM/MeOH (1:1), 50 °C, organic solvent or mixture, thermodynamic from solid, DCM/MeOH (1:1), read-out: Solubility at 50 ± 1° C.): > 50000 µg/mL
solubility ([2]; DMF, 50 °C, organic solvent or mixture, thermodynamic from solid, DMF, read-out: Solubility at 50 ± 1° C.): > 50000 µg/mL
solubility ([2]; DMSO, 50 °C, organic solvent or mixture, thermodynamic from solid, DMSO, read-out: Solubility at 50 ± 1° C.): > 50000 µg/mL
solubility ([2]; EtOAc, 50 °C, organic solvent or mixture, thermodynamic from solid, EtOAc, read-out: Solubility at 50 ± 1° C.): 2710 µg/mL (≈ 6.31 mM)
solubility ([2]; EtOH, 50 °C, organic solvent or mixture, thermodynamic from solid, EtOH, read-out: Solubility at 50 ± 1° C.): 8560 µg/mL (≈ 19.9 mM)
solubility ([2]; IPA, 50 °C, organic solvent or mixture, thermodynamic from solid, IPA, read-out: Solubility at 50 ± 1° C.): 2220 µg/mL (≈ 5.17 mM)
solubility ([2]; IPAc, 50 °C, organic solvent or mixture, thermodynamic from solid, IPAc, read-out: Solubility at 50 ± 1° C.): 980 µg/mL (≈ 2.28 mM)
solubility ([2]; MEK, 50 °C, organic solvent or mixture, thermodynamic from solid, MEK, read-out: Solubility at 50 ± 1° C.): 3730 µg/mL (≈ 8.69 mM)
solubility ([2]; MIBK, 50 °C, organic solvent or mixture, thermodynamic from solid, MIBK, read-out: Solubility at 50 ± 1° C.): 2950 µg/mL (≈ 6.87 mM)
solubility ([2]; MeCN, 50 °C, organic solvent or mixture, thermodynamic from solid, MeCN, read-out: Solubility at 50 ± 1° C.): 11600 µg/mL (≈ 26.9 mM)
solubility ([2]; THF, 50 °C, organic solvent or mixture, thermodynamic from solid, THF, read-out: Solubility at 50 ± 1° C.): 11300 µg/mL (≈ 26.3 mM)
solubility ([2]; THF/water (4:1), 50 °C, organic solvent or mixture, thermodynamic from solid, THF/water (4:1), read-out: Solubility at 50 ± 1° C.): > 50000 µg/mL
solubility ([2]; acetone, 50 °C, organic solvent or mixture, thermodynamic from solid, Acetone, read-out: Solubility at 50 ± 1° C.): 15500 µg/mL (≈ 36.1 mM)
solubility ([2]; ethyl formate, 50 °C, organic solvent or mixture, thermodynamic from solid, Ethyl formate, read-out: Solubility at 50 ± 1° C.): 6580 µg/mL (≈ 15.3 mM)
solubility ([2]; hexane, 50 °C, organic solvent or mixture, thermodynamic from solid, Hexane, read-out: Solubility at 50 ± 1° C.): 60 µg/mL (≈ 0.14 mM)
solubility ([2]; isobutyl acetate, 50 °C, organic solvent or mixture, thermodynamic from solid, Isobutyl acetate, read-out: Solubility at 50 ± 1° C.): 750 µg/mL (≈ 1.75 mM)
solubility ([2]; methanol, 50 °C, organic solvent or mixture, thermodynamic from solid, Methanol, read-out: Solubility at 50 ± 1° C.): 17900 µg/mL (≈ 41.6 mM)
solubility ([2]; n-BuOH, 50 °C, organic solvent or mixture, thermodynamic from solid, n-BuOH, read-out: Solubility at 50 ± 1° C.): 6200 µg/mL (≈ 14.4 mM)
solubility ([2]; organic solvent or mixture, thermodynamic from solid, at 50° C. in MeCN, 1,4-dioxane, MeOH, 2-methoxyethanol, THF, acetone, n-BuOH, EtOH, ethyl formate, 1-propanol, MEK, acetone water (2:1), acetone water (1:1), MIBK, EtOAc, IPA, and acetone water (1:2), read-out: Solubility (slightly soluble)): 1000 to 50000 µg/mL (≈ 2.33 to 116 mM)
solubility ([2]; water, 50 °C, water, thermodynamic from solid, Water, read-out: Solubility at 50 ± 1° C.): 10 µg/mL (≈ 0.0233 mM)
Relative stability of polymorphic forms [3]: most stable polymorphic form

From patent publication US10611762B2, “Crystalline forms of a FGFR inhibitor and processes for preparing the same” (Incyte Corporation, priority 2017, dated 2020)
